{"source": "paper PMC10679740", "about": "“Role of peptide–cell surface interactions in cosmetic peptide application” (Frontiers in Pharmacology, 2023)", "key": {"[1]": {"assay": "In vitro skin permeation test, Franz-type diffusion cells", "procedure": "The transdermal delivery of GHK and RGD-GHK was measured through the porcine skin. Permeation experiment was carried out for 24 h at 37 °C with Franz-type diffusion cells. Peptides in collected receptor solutions and skin retention were analyzed by HPLC. […] To further test whether the incorporation of a targeting motif could enhance the binding of chimeric peptides in vivo, we used smearing FITC-peptides at the mouse back for 24 h and tracked the peptide location of the skin slices by fluorescent microscopy."}, "HaCaT cells": {"tested_on": "HaCaT cells", "assay": "Release of lactate dehydrogenase after H2O2 damage", "type": "cell-based, human", "details": "800 μM H2O2 for 2 h, then fresh medium 18 h, no peptide", "procedure": "Lactate dehydrogenase (LDH) activity of the cellular culture was evaluated using an LDH release assay kit (Beyotime). Cells (1 × 10^5 cells per well) were cultured in a 24-well plate for 24 h to reach approximately 80% confluence and then treated either with peptide solution or peptide-free DMEM (positive control, PC). After 4 h incubation, both the peptide solution and peptide-free culture medium were replaced with 250 μL of 800 µM H2O2 and incubated for another 2 h. Then, the cells were incubated with 500 µL of the fresh medium instead of H2O2 for 18 h. Then, 200 µL of the supernatant alone was harvested and mixed with 20 µL of the releasing agent, while the PC medium together with cells was incubated with the equivalent releasing agent. A measure of 200 μL of DMEM alone mixed with 20 µL of the releasing agent was used as a negative control (NC). Then, the solution was incubated at 37°C and 5% CO2 for 1 h and centrifuged at 1,000 rpm for 4 min. A measure of 40 μL suspension per well was pipetted into a 96-well plate and mixed with 20 µL of fresh LDH working solution that was prepared according to the manufacturer’s protocol. The plate was briefly vortexed in the dark for 30 min, and the OD values were measured at 490 nm wavelength. LDH release (%) was expressed via the following equation: LDH (%) = (ODsample − ODnc)/(ODpc − ODnc) × 100%."}, "HaCaT [2]": {"tested_on": "HaCaT", "assay": "Cell apoptosis assay (Annexin V-FITC/PI, FCM)", "type": "cell-based, human", "details": "with or without peptide 200 μg/mL 4 h, 800 μM H2O2 2 h, medium 18 h, Figure 4E/G", "procedure": "The percentage of early-stage apoptosis and late-stage apoptosis and necrosis of cells induced by H2O2, with or without peptide addition, were determined using an Annexin V-FITC/PI double-staining assay kit (Beyotime). Cells (1×10^5 cells per well) were seeded in a 24-well plate, pretreated with or without peptide solutions, and incubated for 4 h. The peptide solution or culture medium was replaced with 800 μM of H2O2 solution and was incubated for 2 h at 37°C. Then, the cells were incubated only with the complete medium for another 18 h. Non-treated groups were taken as controls. Suspended medium (200 µL) and trypsin-disassociated cells were collected and centrifuged at 1,000 rpm for 4 min. The precipitate was resuspended in binding buffer (195 µL) plus Annexin V-FITC (5 µL) and incubated for 5 min, followed by 10-min staining of 10 µL propidium iodide (PI). The non-staining sample was used as a reference. After a gentle mix at room temperature and a dark environment, the ratio of cell death was detected via flow cytometry (FCM). […] The free dye was inclined to bind to DNA in the nucleus and emitted strong green fluorescence when DEVD dye was broken down by caspase-3. The fluorescence intensity was measured by FCM, which represented the activity of caspase-3."}, "HaCaT [3]": {"tested_on": "HaCaT", "assay": "Cell viability, CCK-8 assay", "details": "2 h incubation"}, "HFF-1": {"tested_on": "HFF-1", "assay": "Cell viability, CCK-8 assay", "details": "HFF-1, 2 h incubation"}, "[4]": {"target": "T1, Human neutrophil elastase (Homo sapiens, UniProt P08246)", "T1 construct": "purchased Yuanye Bio Co. (Shanghai)", "T1 sequence (P08246 30-267)": "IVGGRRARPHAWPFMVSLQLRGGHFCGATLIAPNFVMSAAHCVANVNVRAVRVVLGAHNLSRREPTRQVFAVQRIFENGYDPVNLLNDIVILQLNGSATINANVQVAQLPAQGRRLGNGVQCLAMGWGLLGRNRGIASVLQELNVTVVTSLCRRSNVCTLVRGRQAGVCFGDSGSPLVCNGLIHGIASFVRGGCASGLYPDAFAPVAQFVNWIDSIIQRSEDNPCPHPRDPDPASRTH", "assay": "Assay of elastase activity (pNA substrate, OD 405 nm)", "type": "biochemical", "details": "2.5 U/mL elastase, 37°C, 2 h time point; for elastase inhibition rate: peptide 200 μg/mL, 5 min preheating", "procedure": "N-Methoxysuccinyl-ala-ala-pro-val-p-nitroanilide (CAS: 70967-90-7) was bought from Sigma Chemical Co. (St. Louis, United States). Sivelestat sodium salt hydrate (S7198, CAS: 201677-61-4) was purchased from Meilun Co. (Dalian). Human neutrophil elastase (30 U/mg) was obtained from Yuanye Bio Co. (Shanghai). p-Nitroanilide (pNA, CAS: […]) was bought from Aladdin Co. (Shanghai). All other chemicals were of analytical grade and purchased from Sigma.\nThe stock solution (0.1 mg/mL pNA) was prepared in 10% DMSO. The standard curve of pNA was made using the different volumes of stock (200, 150, 100, 50, 30, 20, 10, 5, and 1 μL) mixed with 10% DMSO to reach a final volume of 200 μL. The optical density (OD) of each sample was measured at a wavelength of 405 nm.\nSubstrates were dissolved in 10% DMSO to form a final concentration of 100 μM. A measure of 100 μL of different concentrations (10, 5, 2.5, 1.25, 0.625, and 0.3125 U/mL) of elastase solution in 10% DMSO was preheated at 37°C for 5 min, and 100 μL of substrate solution was added to start the reaction at 37°C. The absorbance at 405 nm was monitored at 5-min intervals up to a recording time of 2 h at 37°C. A measure of 200 μL of 10% DMSO was taken as a blank control.\nA measure of 90 μL of 2.5 U/mL elastase solution together with 10 μL of the sample at a certain concentration was preheated at 37°C for 5 min, and then 100 μL of the substrate was added to initiate a 120 min-reaction at 37°C. The OD was read at 405 nm. A measure of 200 μL of 10% DMSO was used as a blank control; 10 μL of Sivelestat solution at 10 mM was prepared as a positive control; and 10 μL of PBS was added as a negative control that represented the maximum enzyme activity. The inhibition rate of elastase was calculated according to the following formula: inhibition (%) = [1 − (ODsample − ODblank)/(ODneg − ODblank)] × 100%."}, "[5]": {"tested_on": "COL-1 of mouse embryonic fibroblasts NIH3T3", "assay": "Immunofluorescence staining of COL-1", "type": "cell-based", "details": "NIH3T3, pretreatment 4 h (RGD-GHK 200 μg/mL), 400 µM H2O2 2 h, fresh medium 20 h", "procedure": "(§1) HFF-1 cells (1.5 × 10^5 cells per well) or mouse embryonic fibroblasts (NIH3T3) were grown on sterile cell slides for 24 h till 80% confluence. A measure of 200 μg/mL of RGD-GHK and GHK solutions was prepared with serum-free DMEM, and the cells were treated with the solutions for 4 h. Then, the solutions were replaced with 400 µM H2O2 and incubated for another 2 h. Then, the fresh culture medium was added to the cells and incubated for another 20 h. Pretreatment without peptides was used as a negative control, while treatment with an anti-aging peptide, acetyl hexapeptide-8 (Wrinklend), was taken as a positive control. The slides were washed three times with PBS, followed by fixation in 500 µL of 4% paraformaldehyde for 15 min at room temperature. After washing with PBS another three times, the cells were permeabilized with 0.5% Triton X-100 for 15 min and washed with PBS repeatedly. The cells were blocked using 1% BSA for 1 h to eliminate non-specific binding. Samples were incubated at 4°C overnight with 100 µL of rabbit monoclonal antibody against type I collagen (COL1A1, 1:100 dilution, CST). […] Then, a fluorescent anti-quenching agent was applied to seal off the slips for 5 min, and the slips were observed using an upright fluorescence microscope."}, "[6]": {"tested_on": "COL-1 of the human fibroblasts HFF-1", "assay": "Immunofluorescence staining of COL-1", "type": "cell-based", "details": "HFF-1, pretreatment 4 h (RGD-GHK 200 μg/mL), 400 µM H2O2 2 h, fresh medium 20 h", "procedure": "as §1"}, "chymotrypsin": {"tested_on": "chymotrypsin", "assay": "Proteolytic stability assay", "type": "in vitro ADME", "details": "peptide 1 mg/mL, chymotrypsin 1 mg/mL, 37°C, 0, 1, 2, 4, 8, 16 h (Figure S3: 0-8 h); remaining peptide by C18 RP-HPLC, 220 nm", "procedure": "To evaluate the proteolytic stability of peptides against chymotrypsin, the peptides were dissolved to 1 mg/mL and incubated with chymotrypsin (1 mg/mL) at 37°C for different times (0, 1, 2, 4, 8, and 16 h). Afterward, the remaining peptides in the samples were analyzed by C18 reversed-phase high-performance liquid chromatography (HPLC) and detected at 220 nm. The mobile phase of HPLC was a mixture of acetonitrile and deionized water containing 0.1% trifluoroacetic acid."}, "mouse red blood cells": {"tested_on": "mouse red blood cells", "details": "2 mg/mL peptide, 5% (v/v) mouse red blood cells in PBS, 37°C, 1 h, OD 540 nm; repeated five times"}, "[7]": {"details": "porcine skin, Franz-type diffusion cells, 24 h, 37 °C, HPLC"}}, "note": "Counter-ions that a name gives are not always drawn. Like-named read-outs stand apart in the source and are kept apart here. Where a SMILES comes first, the peptide text is derived from it. Where no end group is shown, it is not given here.", "data": [{"compound": "NCCCC[C@H](NC(=O)[C@H](Cc1cnc[nH]1)NC(=O)CN)C(=O)O", "note": "[GHK, tripeptide-1, reference compound] (H-Gly-His-Lys-OH)", "values": [{"measurement": "peptide detected in the receptor cell", "setting": "[1]", "result": "~0.5", "unit": "%"}, {"measurement": "peptide detected in the skin (skin retention)", "setting": "[1]", "result": 2.7, "unit": "%"}]}, {"compound": "OO", "note": "[H2O2]", "values": [{"measurement": "LDH leakage", "setting": "HaCaT cells", "result": "over 37%"}, {"measurement": "ratio of early apoptosis", "setting": "HaCaT [2]", "result": 28, "unit": "%"}, {"measurement": "concentration with apparent cytotoxic effect", "setting": "HaCaT [3]", "result": "1,600 μM"}, {"measurement": "concentration with obvious cytotoxicity", "setting": "HFF-1", "result": 800, "unit": "µM"}]}, {"compound": "RKQRRERGHK [sOtx2-GHK]", "values": [{"measurement": "elastase inhibition rate", "setting": "[4]", "result": "~20", "unit": "%"}]}, {"compound": "acetyl hexapeptide-8 [Wrinklend]", "values": [{"measurement": "COL-1 expression (immunofluorescence)", "setting": "[5]", "result": "significantly suppressed COL-1 degradation"}, {"measurement": "COL-1 expression (immunofluorescence)", "setting": "[6]", "result": "significantly suppressed COL-1 degradation"}]}, {"compound": "CC(C)(C)C(=O)Oc1ccc(S(=O)(=O)Nc2ccccc2C(=O)NCC(=O)O)cc1", "note": "[Sivelestat, Sivelestat sodium salt hydrate, reference compound]", "values": [{"measurement": "inhibition at 250 µM", "setting": "[4]; 250 μM of Sivelestat (positive control), read-out: elastase inhibition rate", "result": "~65", "unit": "%"}]}, {"compound": "RGDGHK [RGD-GHK]", "values": [{"measurement": "elastase inhibition rate", "setting": "[4]", "result": "approximately 25%"}, {"measurement": "proteolytic stability against chymotrypsin, compared with GHK", "setting": "chymotrypsin", "result": "no significant difference in the proteolytic stability"}, {"measurement": "peptide detected in the receptor cell", "setting": "[1]; [7]", "result": "approximately 5%"}, {"measurement": "peptide detected in the skin (skin retention)", "setting": "[1]; [7]", "result": 5, "unit": "%"}, {"measurement": "hemolysis (RBCs lysed)", "setting": "mouse red blood cells", "result": "less than 1%"}]}]}
